Experimental findings from patent EP0743938B1, “SUBSTITUTED SPIRO COMPOUNDS FOR THE TREATMENT OF INFLAMMATION” (G.D. SEARLE & CO., priority 1994, dated 1995) are described below.

Assay [1] deals with Male Sprague-Dawley rats. Kind of assay: Rat Carrageenan-induced Analgesia Test. Format: in vivo. The settings on record: po, 3 h, read-out: ANALGESIA % Inhibition @ 10mg/kg body weight, rats dosed orally, hyperalgesic foot withdrawal, thermal stimulation three hours after carrageenan.
For assay [2], the system named is Male Sprague-Dawley rats. Kind of assay: Rat Carrageenan Foot Pad Edema Test. Format: in vivo. The settings on record: po, 3 h, rats dosed orally, 10mg/kg body weight, one hour before carrageenan, foot volume three hours after carrageenan, read-out: RAT PAW EDEMA % Inhibition @ 10mg/kg body weight.
Description: Male Sprague-Dawley rats were selected in each group so that the average body weight was as close as possible. Rats were fasted with free access to water for over sixteen hours prior to the test. The rats were dosed orally (1 mL) with compounds suspended in vehicle containing 0.5% methylcellulose and .025% surfactant, or with vehicle alone. One hour later a subplantar injection of 0.1 mL of 1% solution of carrageenan/sterile 0.9% saline was administered and the volume of the injected foot was measured with a displacement plethysmometer connected to a pressure transducer with a digital indicator. Three hours after the injection of the carrageenan, the volume of the foot was again measured.
The target of the next assay is COX-1 (Homo sapiens, UniProt P23219). As to conditions: read-out: COX I ID50 µM.
COX-1, sequence (P23219 24-599): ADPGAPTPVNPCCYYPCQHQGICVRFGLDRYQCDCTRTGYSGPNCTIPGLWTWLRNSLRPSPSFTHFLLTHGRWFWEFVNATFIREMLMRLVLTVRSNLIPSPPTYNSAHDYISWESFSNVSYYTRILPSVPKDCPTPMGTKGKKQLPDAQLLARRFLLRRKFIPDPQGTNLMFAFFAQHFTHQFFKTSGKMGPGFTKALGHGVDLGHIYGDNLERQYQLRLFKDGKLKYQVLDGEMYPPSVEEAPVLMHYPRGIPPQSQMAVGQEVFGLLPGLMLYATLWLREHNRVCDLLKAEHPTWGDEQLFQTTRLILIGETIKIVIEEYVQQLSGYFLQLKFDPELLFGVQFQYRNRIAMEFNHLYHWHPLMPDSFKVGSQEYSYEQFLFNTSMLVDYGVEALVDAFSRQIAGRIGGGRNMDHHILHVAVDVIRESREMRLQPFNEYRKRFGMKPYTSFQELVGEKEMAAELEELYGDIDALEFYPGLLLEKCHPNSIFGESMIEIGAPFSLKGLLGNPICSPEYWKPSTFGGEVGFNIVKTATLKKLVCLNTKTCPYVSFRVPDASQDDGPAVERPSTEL

As for `CS(=O)(=O)c1ccc(C2=C(c3ccc(F)cc3)CC3(CC3)C2)cc1` [Example 1, 5-(4-Fluorophenyl)-6-[4-(methylsulfonyl)phenyl]spiro[2.4]hept-5-ene], the inhibition in vivo at 10 mg/kg amounted to 15% with Male Sprague-Dawley rats [1] and 32% in the assay on Male Sprague-Dawley rats [2]. With `NS(=O)(=O)c1ccc(C2=C(c3ccc(F)cc3)CC3(CC3)C2)cc1` [Example 2, 4-[6-(4-Fluorophenyl)spiro[2.4]hept-5-en-5-yl]benzenesulfonamide], the inhibition in vivo at 10 mg/kg in the assay with Male Sprague-Dawley rats [1] turned out to be 34%; with Male Sprague-Dawley rats [2], 57%. On to `CS(=O)(=O)c1ccc(C2=C(c3ccc(F)cc3)CC3(CCC3)C2)cc1` [Example 3, 6-(4-Fluorophenyl)-7-[4-(methylsulfonyl)phenyl]spiro[3.4]oct-6-ene], for which the inhibition in vivo at 10 mg/kg in the assay on Male Sprague-Dawley rats [2] came out at 24%. Same read-out and setting: the result for `NS(=O)(=O)c1ccc(C2=C(c3ccc(F)cc3)CC3(CCC3)C2)cc1` [Example 4, 4-[7-(4-Fluorophenyl)spiro[3.4]oct-6-en-6-yl]benzenesulfonamide] reads 17%. For `COc1ccc(C2=C(c3ccc(S(C)(=O)=O)cc3)CC3(CC3)C2)cc1Cl` [Example 6, 5-(3-Chloro-4-methoxyphenyl)-6-[4-(methylsulfonyl)phenyl)spiro[2.4]hept-5-ene], the inhibition in vivo at 10 mg/kg in the assay with Male Sprague-Dawley rats [1] was found to be 7%; in the assay on Male Sprague-Dawley rats [2], 21%. Taken in the same sequence, the figures for `COc1ccc(C2=C(c3ccc(S(N)(=O)=O)cc3)CC3(CC3)C2)cc1Cl` [Example 7, 4-[6-(3-Chloro-4-methoxyphenyl)spiro[2.4]hept-5-en-5-yl]benzenesulfonamide] were 18% and 20%. For `COc1ccc(C2=C(c3ccc(S(C)(=O)=O)cc3)CC3(CC3)C2)cc1F` [Example 8, 5-(3-Fluoro-4-methoxyphenyl)-6-[4-(methylsulfonyl)phenyl]spiro[2.4]hept-5-ene], the inhibition in vivo at 10 mg/kg was determined as 8% with Male Sprague-Dawley rats [1] and 15% with Male Sprague-Dawley rats [2].

Take `COc1ccc(C2=C(c3ccc(S(N)(=O)=O)cc3)CC3(CC3)C2)cc1F` [Example 9, 4-[6-(3-Fluoro-4-methoxyphenyl)spiro[2.4]hept-5-en-5-yl]benzenesulfonamide]: the inhibition in vivo at 10 mg/kg turned out to be 17% in the assay on Male Sprague-Dawley rats [1] and 15% in the assay with Male Sprague-Dawley rats [2].

Take `CS(=O)(=O)c1ccc(C2=C(c3ccc(OC(F)(F)F)cc3)CC3(CC3)C2)cc1` [Example 14, 6-[4-(Methylsulfonyl)phenyl]-5-(4-trifluoromethoxyphenyl)spiro[2.4]hept-5-ene]: the inhibition in vivo at 10 mg/kg in the assay with Male Sprague-Dawley rats [2] amounted to 18%. On the same count and under the same terms, the result for `COc1ccc(C2=C(c3ccc(S(C)(=O)=O)cc3)CC3(CC3)C2)cc1Br` [Example 16, 5-(3-Bromo-4-methoxyphenyl)-6-[4-(methylsulfonyl)phenyl]spiro[2.4]hept-5-ene] reads 6%. For `CS(=O)(=O)c1ccc(C2=C(c3ccc(C(F)(F)F)cc3)CC3(CC3)C2)cc1` [Example 19, 6-[4-(Methylsulfonyl)phenyl)-5-(4-trifluoromethylphenyl)spiro[2.4]hept-5-ene], the inhibition in vivo at 10 mg/kg in the assay on Male Sprague-Dawley rats [1] was 9%; in the assay on Male Sprague-Dawley rats [2], 11%. As for `COc1c(Cl)cc(C2=C(c3ccc(S(C)(=O)=O)cc3)CC3(CC3)C2)cc1Cl` [Example 20, 5-(3,5-Dichloro-4-methoxyphenyl)-6-[4-(methylsulfonyl)phenyl]spiro[2.4]hept-5-ene], the inhibition in vivo at 10 mg/kg in the assay with Male Sprague-Dawley rats [1] was found to be 28%; with Male Sprague-Dawley rats [2], 24%. As for `CS(=O)(=O)c1ccc(C2=C(c3ccc(F)c(Cl)c3)CC3(CC3)C2)cc1` [Example 22, 5-(3-Chloro-4-fluorophenyl)-6-[4-(methylsulfonyl)phenyl]spiro[2.4]hept-5-ene], the inhibition in vivo at 10 mg/kg in the assay on Male Sprague-Dawley rats [1] came to 10%; in the assay on Male Sprague-Dawley rats [2], 21%. Besides, on COX-1, the IC50 came to 6 µM.

In the case of `NS(=O)(=O)c1ccc(C2=C(c3ccc(C(F)(F)F)cc3)CC3(CC3)C2)cc1` [Example 25, 4-[6-(4-Trifluoromethylphenyl)spiro[2.4]hept-5-en-5-yl]benzenesulfonamide], the inhibition in vivo at 10 mg/kg in the assay with Male Sprague-Dawley rats [1] came to 22%; in the assay on Male Sprague-Dawley rats [2], 34%. For the molecule `CS(=O)(=O)c1ccc(C2=C(c3ccc(Cl)c(Cl)c3)CC3(CC3)C2)cc1` [Example 27, 5-(3,4-Dichlorophenyl)-6-[4-(methylsulfonyl)phenyl]spiro[2.4]hept-5-ene], in the assay on Male Sprague-Dawley rats [2], the inhibition in vivo at 10 mg/kg came out at 15%. In the case of `NS(=O)(=O)c1ccc(C2=C(c3ccc(Cl)c(Cl)c3)CC3(CC3)C2)cc1` [Example 29, 4-[6-(3,4-Dichlorophenyl)spiro[2.4]hept-5-en-5-yl]benzenesulfonamide], the inhibition in vivo at 10 mg/kg in the assay with Male Sprague-Dawley rats [1] came to 29%; with Male Sprague-Dawley rats [2] it was 24%.
